Results from US12109218B2, “Compositions of grapiprant and methods for using the same” (ARATANA THERAPEUTICS, INC., priority 2014, dated 2024).
Where two headings read alike, the source gives them in different places.

Key:
[1] = tested on: mechanical hyperalgesia induced by carrageenan model; conditions: cited from earlier work
[2] = Dose linearity and effect of feeding, PK in cats (Example 10); format: in vivo, cat; conditions: for Cmax / AUC(0-inf) / Tmax / half-life / AUC(0-t): serum, po
Protocol: Grapiprant was blended in a mixture of excipients as shown in Table 14 and administered orally by capsule to male and female cats.
The day of dosing was defined as Day 0. Following dosing, the animals were evaluated for clinical signs. Blood samples were collected prior to dosing and at 0.25, 0.5, 1, 2, 4, 8, 12, and 24-hours postdose. The blood samples were processed to serum and analyzed for grapiprant concentration. There were no test article-related clinical signs. The mean grapiprant pharmacokinetic results were as follow in Table 16.

For `CCc1nc2c(C)nc(C)cc2n1-c1ccc(CCNC(=O)NS(=O)(=O)c2ccc(C)cc2)cc1` [grapiprant, N-{2-[4-(2-ethyl-4,6-dimethyl-1H-imidazo[4,5-c]pyridin-1-yl)phenyl]ethyl}-N′-[(4-methylphenyl)sulfonyl]urea], which “effect on mechanical hyperalgesia” value [1] is on record?
Its value is “significantly reduces mechanical hyperalgesia”.

And the Cmax ([2]; both sexes, 2 mg/kg, Group 1 fed cats, single oral 2 mg/kg capsule, males and females, read-out: Mean Cmax)?
Its Cmax is 327 to 407 ng/mL.

What about the AUC(0-inf) ([2]; both sexes, 2 mg/kg, Group 1 fed cats, single oral 2 mg/kg capsule, males and females, read-out: mean AUC0-∞) of the same compound?
The AUC(0-inf) was 1070 to 1220 ng·h/mL.

And the Tmax ([2]; both sexes, 2 mg/kg, Group 1 fed cats, single oral 2 mg/kg capsule, males and females, read-out: mean Tmax)?
Its Tmax is 1.33 to 1.65 h.

What about the half-life ([2]; both sexes, 2 mg/kg, Group 1 fed cats, single oral 2 mg/kg capsule, males and females, read-out: mean terminal half-life) of the same compound?
The half-life was 2.4 to 3.12 h.

And the Cmax ([2]; both sexes, 2 mg/kg, Group 2 fasted cats, single oral 2 mg/kg capsule, males and females, read-out: Mean Cmax)?
Its Cmax is 1100 to 1630 ng/mL.

And the AUC(0-inf) ([2]; both sexes, 2 mg/kg, Group 2 fasted cats, single oral 2 mg/kg capsule, males and females, read-out: mean AUC0-∞)?
Its AUC(0-inf) is 1970 to 2850 ng·h/mL.

And the Tmax ([2]; both sexes, 2 mg/kg, Group 2 fasted cats, single oral 2 mg/kg capsule, males and females, read-out: mean Tmax)?
Its Tmax is 1.01 h.

What about the half-life ([2]; both sexes, 2 mg/kg, Group 2 fasted cats, single oral 2 mg/kg capsule, males and females, read-out: mean terminal half-life) of the same compound?
Its half-life is 1.47 to 2.16 h.

What about the Cmax ([2]; both sexes, 6 mg/kg, Group 3 fasted cats, single oral 6 mg/kg capsule, males and females, read-out: Mean Cmax) of the same compound?
The Cmax was 2970 to 3110 ng/mL.

What about the AUC(0-inf) ([2]; both sexes, 6 mg/kg, Group 3 fasted cats, single oral 6 mg/kg capsule, males and females, read-out: mean AUC0-∞) of the same compound?
Its AUC(0-inf) is 3750 to 6350 ng·h/mL.

And the Tmax ([2]; both sexes, 6 mg/kg, Group 3 fasted cats, single oral 6 mg/kg capsule, males and females, read-out: mean Tmax)?
Its Tmax is 0.99 to 1.17 h.

And the half-life ([2]; both sexes, 6 mg/kg, Group 3 fasted cats, single oral 6 mg/kg capsule, males and females, read-out: mean terminal half-life)?
Its half-life is 2.79 to 4.98 h.

What about the Cmax ([2]; both sexes, 10 mg/kg, Group 4 fasted cats, single oral 10 mg/kg capsule, males and females, read-out: Mean Cmax) of the same compound?
Its Cmax is 4280 to 7130 ng/mL.

And the AUC(0-inf) ([2]; both sexes, 10 mg/kg, Group 4 fasted cats, single oral 10 mg/kg capsule, males and females, read-out: mean AUC0-∞)?
Its AUC(0-inf) is 7580 to 10900 ng·h/mL.

And the Tmax ([2]; both sexes, 10 mg/kg, Group 4 fasted cats, single oral 10 mg/kg capsule, males and females, read-out: mean Tmax)?
Its Tmax is 0.728 to 1.33 h.

And the half-life ([2]; both sexes, 10 mg/kg, Group 4 fasted cats, single oral 10 mg/kg capsule, males and females, read-out: mean terminal half-life)?
Its half-life is 4.03 to 4.19 h.

And the tolerability ([2]; cats, one-time oral capsule, 2 (fed and fasted), 6, and 10 mg/kg)?
The tolerability was “well-tolerated with no test article-related clinical signs”.

And the “dose linearity of exposure (AUC0-∞)” value ([2]; fasted cats, Groups 2-4, 2-10 mg/kg)?
Its value is “roughly dose-linear but less than dose-proportional”.

What about the AUC(0-t) ([2]; female, 2 mg/kg, cats, Group 1, 2 mg/kg capsule, Fed, Female, mean) of the same compound?
Its AUC(0-t) is 990 ng·h/mL.

And the AUC(0-inf) ([2]; female, 2 mg/kg, cats, Group 1, 2 mg/kg capsule, Fed, Female, mean, read-out: AUC0-∞)?
The AUC(0-inf) was 1070 ng·h/mL.

And the Cmax ([2]; female, 2 mg/kg, cats, Group 1, 2 mg/kg capsule, Fed, Female, mean, read-out: Cmax)?
The Cmax was 327 ng/mL.

And the Tmax ([2]; female, 2 mg/kg, cats, Group 1, 2 mg/kg capsule, Fed, Female, mean, read-out: Tmax)?
The Tmax was 1.33 h.

And the half-life ([2]; female, 2 mg/kg, cats, Group 1, 2 mg/kg capsule, Fed, Female, mean, read-out: t1/2 (converted))?
The half-life was 2.4 h.

What about the AUC(0-t) ([2]; female, 2 mg/kg, cats, Group 2, 2 mg/kg capsule, Fasted, Female, mean) of the same compound?
The AUC(0-t) was 2780 ng·h/mL.

What about the AUC(0-inf) ([2]; female, 2 mg/kg, cats, Group 2, 2 mg/kg capsule, Fasted, Female, mean, read-out: AUC0-∞) of the same compound?
Its AUC(0-inf) is 2850 ng·h/mL.

What about the Cmax ([2]; female, 2 mg/kg, cats, Group 2, 2 mg/kg capsule, Fasted, Female, mean, read-out: Cmax) of the same compound?
The Cmax was 1630 ng/mL.

And the Tmax ([2]; female, 2 mg/kg, cats, Group 2, 2 mg/kg capsule, Fasted, Female, mean, read-out: Tmax)?
The Tmax was 1.01 h.

And the half-life ([2]; female, 2 mg/kg, cats, Group 2, 2 mg/kg capsule, Fasted, Female, mean, read-out: t1/2 (converted))?
The half-life was 1.47 h.

And the AUC(0-t) ([2]; female, 6 mg/kg, cats, Group 3, 6 mg/kg capsule, Fasted, Female, mean)?
Its AUC(0-t) is 6130 ng·h/mL.

And the AUC(0-inf) ([2]; female, 6 mg/kg, cats, Group 3, 6 mg/kg capsule, Fasted, Female, mean, read-out: AUC0-∞)?
Its AUC(0-inf) is 6350 ng·h/mL.

And the Cmax ([2]; female, 6 mg/kg, cats, Group 3, 6 mg/kg capsule, Fasted, Female, mean, read-out: Cmax)?
The Cmax was 3110 ng/mL.

And the Tmax ([2]; female, 6 mg/kg, cats, Group 3, 6 mg/kg capsule, Fasted, Female, mean, read-out: Tmax)?
Its Tmax is 1.17 h.

And the half-life ([2]; female, 6 mg/kg, cats, Group 3, 6 mg/kg capsule, Fasted, Female, mean, read-out: t1/2 (converted))?
The half-life was 4.98 h.

What about the AUC(0-t) ([2]; female, 10 mg/kg, cats, Group 4, 10 mg/kg capsule, Fasted, Female, mean) of the same compound?
Its AUC(0-t) is 10700 ng·h/mL.

And the AUC(0-inf) ([2]; female, 10 mg/kg, cats, Group 4, 10 mg/kg capsule, Fasted, Female, mean, read-out: AUC0-∞)?
Its AUC(0-inf) is 10900 ng·h/mL.

What about the Cmax ([2]; female, 10 mg/kg, cats, Group 4, 10 mg/kg capsule, Fasted, Female, mean, read-out: Cmax) of the same compound?
The Cmax was 7130 ng/mL.

What about the Tmax ([2]; female, 10 mg/kg, cats, Group 4, 10 mg/kg capsule, Fasted, Female, mean, read-out: Tmax) of the same compound?
Its Tmax is 0.73 h.

And the half-life ([2]; female, 10 mg/kg, cats, Group 4, 10 mg/kg capsule, Fasted, Female, mean, read-out: t1/2 (converted))?
Its half-life is 4.19 h.

What about the AUC(0-t) ([2]; male, 2 mg/kg, cats, Group 1, 2 mg/kg capsule, Fed, Male, mean) of the same compound?
The AUC(0-t) was 1030 ng·h/mL.

And the AUC(0-inf) ([2]; male, 2 mg/kg, cats, Group 1, 2 mg/kg capsule, Fed, Male, mean, read-out: AUC0-∞)?
Its AUC(0-inf) is 1220 ng·h/mL.
